According to patent US20230002334A1, “TRPM8 MODULATORS” (Givaudan SA, priority 2019, published 2023):
Structures can show the parent of a compound that is named as a salt.

Assays:
hTRPM8 = target: T1, hTRPM8 (Homo sapiens, UniProt Q7Z2W7); assay: Assay on TRPM8 modulators: calcium imaging (Fluo-4, Flexstation) in HEK293 cell line stably expressing hTRPM8; type: cell-based; settings: HEK293 cells stably expressing hTRPM8, calcium influx, sigmoidal dose-response fit; read-out: EC50
T1 construct: expressed in transfected cells
How it was run: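 Calcium influx monitored by Fluo-4 (2.7 μM with […] probenecid, 1 h 37 °C loading) in HEK293 cells stably expressing hTRPM8, in HEPES buffer pH 7.4 with 2 mM CaCl2. Fluorescence read 15 s before and 105 s after adding serial compound dilutions. Maximal activation relative to solvent and 31.6 μM menthol; EC50 from sigmoidal fit.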

[1] = test system: panelists (mouth, mucosa); assay: Sensory studies in aqueous solution (trained panel, swilling in the mouth); type: in vivo, human; settings: 40 ppm in aqueous solution; for time of max cooling / Max. cooling: 20 mL swilled 60 seconds; for Max. cooling / Cooling after 1 h: averaged panel score on scale 0 to 10; for Cooling after 1 h: 1 h after swilling
Experimental: The compounds as listed below in Table 2 were dissolved at a concenteration of 1 wt-% in propylene glycol. These solutions were then dispensed in appropriate quantities into deionized water containing 0.5 wt-% Poloxamer 407 (which is a hydrophilic non-ionic surfactant, e.g., commercially available from SigmaAldrich) and 0.25 wt-% Cremaphor® RH40 (obtained from BASF) as solubilizer, to obtain the desired final concentration of 40 ppm (parts per milion) of the respective compound.
A trained group of panelists evaluated the aqueous solutions containing test compound by swilling 20 mL of the solution in the mouth for 60 seconds, followed by spitting, without rinsing the mouth afterwards for the duration of the evaluation. Panelists evaluated and recorded the cooling performance as well as other sensorial and organoleptic attributes at different timepoints over a period of two hours. Cooling performance was rated on a scale from 0 to 10 with 0 being no effect and 10 being freezing. Scores were averaged for all panelists and the cooling intensity qualified as “N” for “none” (score of 0), “L” for “low” (score above 0, up to 1), “M” for “medium” (score above 1, up to 4), “S” for “strong” (score above 4, up to 8) and “E” for “extreme” (score above 8), which are provided in Table 2. […] All tasted samples developed cooling sensation starting during swilling (almost immediately upon contact with the mucosa) and before expectorating.

T1 sequence (Q7Z2W7 whole entry): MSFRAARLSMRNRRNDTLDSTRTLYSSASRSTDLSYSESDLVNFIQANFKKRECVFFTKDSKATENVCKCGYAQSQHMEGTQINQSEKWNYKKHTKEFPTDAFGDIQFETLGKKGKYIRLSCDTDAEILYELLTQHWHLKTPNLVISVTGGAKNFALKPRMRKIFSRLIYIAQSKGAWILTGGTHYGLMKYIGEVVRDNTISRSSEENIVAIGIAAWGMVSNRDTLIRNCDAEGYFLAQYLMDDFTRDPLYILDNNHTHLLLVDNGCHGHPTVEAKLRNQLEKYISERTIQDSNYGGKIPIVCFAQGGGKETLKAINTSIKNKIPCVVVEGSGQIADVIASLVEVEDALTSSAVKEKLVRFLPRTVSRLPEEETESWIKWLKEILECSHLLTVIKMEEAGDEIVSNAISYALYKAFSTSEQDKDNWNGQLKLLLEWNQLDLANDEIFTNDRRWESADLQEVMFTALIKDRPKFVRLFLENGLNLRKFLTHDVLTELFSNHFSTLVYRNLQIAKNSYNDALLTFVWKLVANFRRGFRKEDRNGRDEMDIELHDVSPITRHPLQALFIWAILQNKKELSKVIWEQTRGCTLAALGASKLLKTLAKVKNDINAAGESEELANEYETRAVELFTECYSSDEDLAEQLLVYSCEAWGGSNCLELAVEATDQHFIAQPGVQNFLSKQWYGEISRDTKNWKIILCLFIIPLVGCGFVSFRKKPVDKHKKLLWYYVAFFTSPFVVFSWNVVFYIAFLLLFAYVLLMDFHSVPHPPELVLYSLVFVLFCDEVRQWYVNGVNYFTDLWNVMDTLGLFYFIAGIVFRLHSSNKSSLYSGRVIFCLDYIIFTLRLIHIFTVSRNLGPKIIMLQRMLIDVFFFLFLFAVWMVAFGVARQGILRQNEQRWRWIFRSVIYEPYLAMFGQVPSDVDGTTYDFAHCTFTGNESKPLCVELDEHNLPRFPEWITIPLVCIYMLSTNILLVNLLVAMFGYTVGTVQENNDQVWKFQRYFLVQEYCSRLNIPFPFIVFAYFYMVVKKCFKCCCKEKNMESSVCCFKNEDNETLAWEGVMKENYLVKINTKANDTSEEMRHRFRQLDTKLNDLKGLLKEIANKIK

Structure (SMILES) | EC50 (hTRPM8) [nM] | time of max cooling [1] [min] | Max. cooling [1] | Cooling after 1 h [1]
CCN1OC(C)(C)C2CC(C)(CC=C(C)C)CC(C)C21 (stereo not shown) [Compound 9, 1-ethyl-3,3,5,7-tetramethyl-5-(3-methylbut-2-en-1-yl)octahydrobenzo[c]isoxazole] | 50 to 300 | 10 | M (“M” for “medium” (score above 1, up to 4)) | M (“M” for “medium” (score above 1, up to 4))
CC[C@@H]1C[C@H](CC)[C@@H]2[C@@H](C1)C(C)(C)ON2C(C)C (racemic) [Compound 111, rac-(3aR,5R,7S,7aR)-5,7-diethyl-1-isopropyl-3,3-dimethyloctahydrobenzo[c]isoxazole] | 300 to 1000 | 10 | M (“M” for “medium” (score above 1, up to 4)) | L (“L” for “low” (score above 0, up to 1))
C[C@H]1C[C@@](C)(c2cc(F)cc(F)c2)C[C@@H]2[C@@H]1N(C)OC2(C)C (racemic) [Compound 85, rac-(3aR,5R,7S,7aR)-5-(3,5-difluorophenyl)-1,3,3,5,7-pentamethyloctahydrobenzo[c]isoxazole] | < 50 | 10 | M (“M” for “medium” (score above 1, up to 4)) | M (“M” for “medium” (score above 1, up to 4))
CC(C)N1OC(C)(C)[C@@H]2C[C@H](c3ccccc3)C[C@H](C)[C@H]21 (racemic) [Compound 64, rac-(3aR,5R,7S,7aR)-1-isopropyl-3,3,7-trimethyl-5-phenyloctahydrobenzo[c]isoxazole] | 50 to 300 | 10 | M (“M” for “medium” (score above 1, up to 4)) | M (“M” for “medium” (score above 1, up to 4))
COc1ccccc1[C@H]1C[C@@H]2[C@@H]([C@@H](C)C1)N(C(C)C)OC2(C)C (racemic) [Compound 66, rac-(3aR,5R,7S,7aR)-1-isopropyl-5-(2-methoxyphenyl)-3,3,7-trimethyloctahydrobenzo[c]isoxazole] | < 50 | 20 | M (“M” for “medium” (score above 1, up to 4)) | M (“M” for “medium” (score above 1, up to 4))
C[C@H]1C[C@@](C)(c2cccc(C#N)c2)C[C@@H]2[C@@H]1N(C)OC2(C)C (racemic) [Compound 124, rac-3-((3aR,5R,7S,7aR)-1,3,3,5,7-pentamethyloctahydrobenzo[c]isoxazol-5-yl)benzonitrile] | < 50 | 5 | S (“S” for “strong” (score above 4, up to 8)) | M (“M” for “medium” (score above 1, up to 4))
COc1ccc(C2(C)CC(C)C3C(C2)C(C)(C)ON3C)c(OC)c1 (stereo not shown) [Compound 16, 5-(2,4-dimethoxyphenyl)-1,3,3,5,7-pentamethyloctahydrobenzo[c]isoxazole] | 300 to 1000 |  |  | 
Cc1ccc(C(F)(F)F)cc1[C@@]1(C)C[C@@H]2[C@@H]([C@@H](C)C1)N(C)OC2(C)C (racemic) [Compound 39, rac-(3aR,5R,7S,7aR)-1,3,3,5,7-pentamethyl-5-(2-methyl-5-(trifluoromethyl)phenyl)octahydrobenzo[c]isoxazole] | 300 to 1000 |  |  | 
C[C@H]1C[C@@](C)(c2ccc(C(C)(C)C)cc2)C[C@@H]2[C@@H]1N(C)OC2(C)C (racemic) [Compound 95, rac-(3aR,5R,7S,7aR)-5-(4-(tert-butyl)phenyl)-1,3,3,5,7-pentamethyloctahydrobenzo[c]isoxazole] | 1000 to 35000 |  |  | 
Cc1ccc(Cl)cc1[C@@]1(C)C[C@@H]2[C@@H]([C@@H](C)C1)N(C)OC2(C)C (racemic) [Compound 105, rac-(3aR,5R,7S,7aR)-5-(5-chloro-2-methylphenyl)-1,3,3,5,7-pentamethyloctahydrobenzo[c]isoxazole] | < 50 |  |  | 
CC(C)=CC[C@@]1(C)C[C@@H]2[C@@H]([C@@H](C)C1)N(C(C)C)OC2(C)C (racemic) [Compound 58, rac-(3aR,5R,7S,7aR)-1-isopropyl-3,3,5,7-tetramethyl-5-(3-methylbut-2-en-1-yl)octahydrobenzo[c]isoxazole] | 50 to 300 |  |  | 
CN1OC(C)(C)[C@@H]2CCC(c3ccccc3)C[C@H]21 (mixture of isomers) [Compound 115, rac-(3aR,7aR)-1,3,3-trimethyl-6-phenyloctahydrobenzo[c]isoxazole] | 1000 to 35000 |  |  | 
CCN1OC(C)(C)[C@@H]2C[C@](C)(c3ccccc3C)C[C@@H](C)[C@H]21 (racemic) [Compound 33, rac-(3aR,5R,7R,7aR)-1-ethyl-3,3,5,7-tetramethyl-5-(o-tolyl)octahydrobenzo[c]isoxazole] | 300 to 1000 |  |  | 
CSc1ccccc1[C@]1(C)C[C@@H](C)[C@@H]2[C@@H](C1)C(C)(C)ON2C (racemic) [Compound 31, rac-(3aR,5R,7R,7aR)-1,3,3,5,7-pentamethyl-5-(2-(methylthio)phenyl)octahydrobenzo[c]isoxazole] | 1000 to 35000 |  |  | 
CC1CCC2C(C1)N(C)OC2(C)C (stereo not shown) [Compound 6, 1,3,3,6-tetramethyloctahydrobenzo[c]isoxazole] | 1000 to 35000 |  |  | 
Cc1ccc(C#N)cc1[C@@]1(C)C[C@@H]2[C@@H]([C@@H](C)C1)N(C(C)C)OC2(C)C (racemic) [Compound 126, rac-3-((3aR,5R,7S,7aR)-1-isopropyl-3,3,5,7-tetramethyloctahydrobenzo[c]isoxazol-5-yl)-4-methylbenzonitrile] | 50 to 300 |  |  | 
COc1ccc(C#N)cc1[C@@]1(C)C[C@@H]2[C@@H]([C@@H](C)C1)N(C)OC2(C)C (racemic) [Compound 133, rac-4-methoxy-3-((3aR,5R,7S,7aR)-1,3,3,5,7-pentamethyloctahydrobenzo[c]isoxazol-5-yl)benzonitrile] | < 50 |  |  | 
COc1ccccc1[C@@]1(C)C[C@@H]2[C@@H]([C@@H](C)C1)N(C)OC2(C)C (racemic) [Compound 82, rac-(3aR,5R,7S,7aR)-5-(2-methoxyphenyl)-1,3,3,5,7-pentamethyloctahydrobenzo[c]isoxazole] | 50 to 300 |  |  | 
C[C@H]1C[C@@H](c2ccccc2)C[C@@H]2[C@@H]1N(C)OC2(C)C (racemic) [Compound 52, rac-(3aR,5R,7S,7aR)-1,3,3,7-tetramethyl-5-phenyloctahydrobenzo[c]isoxazole] | 50 to 300 |  |  | 
Cc1c(C#N)cccc1C1(C)CC(C)C2C(C1)C(C)(C)ON2C (stereo not shown) [Compound 15, 2-methyl-3-(1,3,3,5,7-pentamethyloctahydrobenzo[c]isoxazol-5-yl)benzonitrile] | 300 to 1000 |  |  | 
CC1CC(C)C2C(C1)C1(CCCC1)ON2C (stereo not shown) [Compound 8, 1,5,7-trimethylhexahydro-1H-spiro[benzo[c]isoxazole-3,1′-cyclopentane]] | 1000 to 35000 |  |  | 
Cc1cc([C@@]2(C)C[C@@H]3[C@@H]([C@@H](C)C2)N(C)OC3(C)C)cs1 (racemic) [Compound 42, rac-(3aR,5R,7S,7aR)-1,3,3,5,7-pentamethyl-5-(5-methylthiophen-3-yl)octahydrobenzo[c]isoxazole] | 50 to 300 |  |  | 
Cc1ccc(F)cc1[C@H]1C[C@@H]2[C@@H]([C@@H](C)C1)N(C)OC2(C)C (racemic) [Compound 108, rac-(3aR,5R,7S,7aR)-5-(5-fluoro-2-methylphenyl)-1,3,3,7-tetramethyloctahydrobenzo[c]isoxazole] | 300 to 1000 |  |  | 
CC1CC(C)C2C(C1)C(C)(C)ON2C (stereo not shown) [Compound 5, 1,3,3,5,7-pentamethyloctahydrobenzo[c]isoxazole hydrochloride] | 1000 to 35000 |  |  | 
CC(C)N1OC(C)(C)[C@@H]2C[C@H](c3ccc(C(C)(C)C)cc3)C[C@H](C)[C@H]21 (racemic) [Compound 97, rac-(3aR,5R,7S,7aR)-5-(4-(tert-butyl)phenyl)-1-isopropyl-3,3,7-trimethyloctahydrobenzo[c]isoxazole] | 1000 to 35000 |  |  | 
CSc1ccccc1[C@@]1(C)C[C@@H]2[C@@H]([C@@H](C)C1)N(C)OC2(C)C (racemic) [Compound 37, rac-(3aR,5R,7S,7aR)-1,3,3,5,7-pentamethyl-5-(2-(methylthio)phenyl)octahydrobenzo[c]isoxazole] | 50 to 300 |  |  | 
COc1ccc(C#N)cc1[C@H]1C[C@@H]2[C@@H]([C@@H](C)C1)N(C(C)C)OC2(C)C (racemic) [Compound 128, rac-3-((3aR,5R,7S,7aR)-1-isopropyl-3,3,7-trimethyloctahydrobenzo[c]isoxazol-5-yl)-4-methoxybenzonitrile] | < 50 |  |  | 
Cc1ccccc1[C@H]1C[C@@H]2[C@@H]([C@@H](C)C1)N(C(C)C)OC2(C)C (racemic) [Compound 63, rac-(3aR,5R,7S,7aR)-1-isopropyl-3,3,7-trimethyl-5-(o-tolyl)octahydrobenzo[c]isoxazole] | 300 to 1000 |  |  | 
